What was measured:
Type in all cases: in vivo
[1] = tested on: redroot pigweed (Amaranthus retroflexus, AMARE); experiment: Pre-emerge test, greenhouse herbicide activity screening; details: pre-emerge, 14 days after application, rating scale 0-100
Procedure, shortened: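 Rating: 0–100 visual injury, 14 DAA. Application: acetone, 187 l/ha, 15–1000 g ai/ha, flat-fan track sprayer with nozzle 40–45 cm above soil or canopy. Post-emerge runs used 0.25% v/v surfactant on 2–3 leaf plants.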

[2] = tested on: barnyardgrass (Echinochloa crus-galli, ECHCG); experiment: Post-emerge test, greenhouse herbicide activity screening; details: post-emerge, 14 days after application, rating scale 0-100
Description: (§1) A standard greenhouse herbicide activity screening system was used to evaluate the herbicidal efficacy and crop safety of these test compounds. Seven broadleaf weed species including redroot pigweed (Amaranthus retroflexus, AMARE, velvetleaf (Abutilon theophrasti, ABUTH), sicklepod (Cassia obtusifolia, CASOB), ivyleaf morningglory (Ipomoea hederacea, IPOHE), lambsquarters (Chenopodium album, CHEAL), common ragweed (Ambrosia artemisizfolia L., AMBEL), and cocklebur (Xanthium strumarium, XANST) were used as test species. Four grass weed species including green foxtail (Setaria viridis, SETVI), barnyardgrass (Echinochloa crus-galli, ECHCG), johnsongrass (Sorghum halepense, SORHA), and large crabgrass (Digitaria sanguinalis, DIGSA) were also used. In addition, three crop species, field corn (Zea mays L., var. Dekalb 535, CORN), soybean (Glycine max L., var. Pella 86, SOY), and is upland rice (Oryza sp., var. Tebonnet, RICE) were included.
(§2) All plants were grown in 10 cm square plastic pots which were filled with a sandy loam soil mix. For pre-emerge tests, seeds were planted one day prior to application of the test compounds. For post-emerge tests, seeds were planted 8-21 days prior to the test to allow emergence and good foliage development prior to application of the test substances. At the time of the post-emerge application, plants of all species were usually at the 2-3 leaf stage of development.
(§3) All test compounds Were dissolved in acetone and applied to the test units in a volume of 187 l /ha. Test materials were applied at rates ranging from 15 g ai/ha to 1000 g ai/ha using a track sprayer equipped with a TJ8001E even flow flat fan spray nozzle. Plants were arranged on a shelf so that the top of the canopy (post-emerge) or top of the soil surface (pre-emerge) was 40-45 cm below the nozzle. Pressurized air was used to force the test solution through the nozzle as it was mechanically advanced (via electrically driven chain drive) over the top of all test plants/pots. This application simulates a typical commercial field herbicide application.
(§4) In the post-emerge test, a commercial non-ionic surfactant was also included (0.25% v/v) to enhance wetting of the leaf surfaces of target plants. Immediately after application, test units of the pre-emerge applications were watered at the soil surface to incorporate the test materials. Subsequently, these test units were bottom-watered. Post-emerge test units were always bottom-watered.
(§5) At 14 days after application of the test materials, phytotoxicity ratings were recorded. A rating scale of 0-100 was used as previously described in Research Methods in Weed Science, 2nd edition, B. Truelove, Ed., Southern Weed Science Society, Auburn University, Auburn, Ala. 1977. Briefly, “0” corresponds to no damage and “100” corresponds to complete death of all plants in the test unit. This scale was used both to determine efficacy against weed species and damage to crop species. Herbicide activity data for various compounds of this invention, which are shown by compound No. in Tables 1-8, are shown in Tables 11 and 12.

[3] = tested on: redroot pigweed (Amaranthus retroflexus, AMARE); experiment: as above; details: post-emerge, 14 days after application
Description: as §1, §2, §3, §4, §5

[4] = tested on: large crabgrass (Digitaria sanguinalis, DIGSA); experiment: as above; details: post-emerge, 14 days after application, rating scale 0-100
Description: as §1, §2, §3, §4, §5

[5] = tested on: lambsquarters (Chenopodium album, CHEAL); experiment: as above; details: post-emerge, 14 days after application, rating scale 0-100
Description: as §1, §2, §3, §4, §5

[6] = tested on: green foxtail (Setaria viridis, SETVI); experiment: as above; details: post-emerge, 14 days after application, rating scale 0-100
Description: as §1, §2, §3, §4, §5

[7] = tested on: velvetleaf (Abutilon theophrasti, ABUTH); experiment: as above; details: post-emerge, 14 days after application, rating scale 0-100
Description: as §1, §2, §3, §4, §5

[8] = tested on: ivyleaf morningglory (Ipomoea hederacea, IPOHE); experiment: as above; details: post-emerge, 14 days after application, rating scale 0-100
Description: as §1, §2, §3, §4, §5

[9] = tested on: sicklepod (Cassia obtusifolia, CASOB); experiment: as above; details: post-emerge, 14 days after application, rating scale 0-100
Description: as §1, §2, §3, §4, §5

[10] = tested on: field corn (Zea mays L., var. Dekalb 535, CORN); experiment: Pre-emerge test, crop safety; details: pre-emerge, 14 days after application, rating scale 0-100
Procedure, shortened: (§6)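 Herbicidal damage is scored 0 (none) to 100 (complete plant death) two weeks after a simulated field spray. Rates span 15–1000 g ai/ha, delivered in acetone at 187 l/ha. For post-emergence treatments, plants have 2–3 leaves and the spray carries 0.25% v/v non-ionic surfactant.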

[11] = tested on: upland rice (Oryza sp., var. Tebonnet, RICE); experiment: Pre-emerge test, crop safety; details: pre-emerge, 14 days after application, rating scale 0-100
Procedure, shortened: as §6

[12] = tested on: field corn (Zea mays L., var. Dekalb 535, CORN); experiment: Post-emerge test, crop safety; details: post-emerge, 14 days after application, rating scale 0-100
Procedure, shortened: as §6

[13] = tested on: upland rice (Oryza sp., var. Tebonnet, RICE); experiment: Post-emerge test, crop safety; details: post-emerge, 14 days after application, rating scale 0-100
Procedure, shortened: as §6

[14] = tested on: barnyardgrass (Echinochloa crus-galli, ECHCG); experiment: Pre-emerge test, greenhouse herbicide activity screening; details: pre-emerge, 14 days after application, rating scale 0-100
Procedure, shortened: as §6

[15] = tested on: large crabgrass (Digitaria sanguinalis, DIGSA); experiment: as above; details: pre-emerge, 14 days after application, rating scale 0-100
Procedure, shortened: as §6

[16] = tested on: lambsquarters (Chenopodium album, CHEAL); experiment: as above; details: pre-emerge, 14 days after application, rating scale 0-100
Procedure, shortened: as §6

[17] = tested on: green foxtail (Setaria viridis, SETVI); experiment: as above; details: pre-emerge, 14 days after application, rating scale 0-100
Procedure, shortened: as §6

[18] = tested on: velvetleaf (Abutilon theophrasti, ABUTH); experiment: as above; details: pre-emerge, 14 days after application, rating scale 0-100
Procedure, shortened: as §6

[19] = tested on: ivyleaf morningglory (Ipomoea hederacea, IPOHE); experiment: as above; details: pre-emerge, 14 days after application, rating scale 0-100
Procedure, shortened: as §6

[20] = tested on: sicklepod (Cassia obtusifolia, CASOB); experiment: as above; details: pre-emerge, 14 days after application, rating scale 0-100
Procedure, shortened: as §6

[21] = 63 g ai/ha, rating scale 0-100 (0 no damage, 100 complete death)
[22] = 250 g ai/ha, rating scale 0-100

**Q.** What does the source list for COc1c(Cl)cc(F)c(-n2c(=O)cc(C(F)(F)F)n(C)c2=O)c1NN=Cc1ccc(F)cc1F [15-20]?
**A.** phytotoxicity rating AMARE ([1]; 63 g ai/ha): 100; phytotoxicity rating AMARE ([1]; 250 g ai/ha): 100; Post-emerge Herbicidal Activity ECHCG (phytotoxicity rating) ([2]; 63 g ai/ha): 50; Post-emerge Herbicidal Activity ECHCG (phytotoxicity rating) ([2]; 250 g ai/ha): 100; Post-emerge Herbicidal Activity AMARE (phytotoxicity rating) [3, 21]: 100; Post-emerge Herbicidal Activity AMARE (phytotoxicity rating) [3, 22]: 100; Post-emerge Herbicidal Activity DIGSA (phytotoxicity rating) ([4]; 63 g ai/ha): 30; Post-emerge Herbicidal Activity DIGSA (phytotoxicity rating) ([4]; 250 g ai/ha): 90; Post-emerge Herbicidal Activity CHEAL (phytotoxicity rating) ([5]; 63 g ai/ha): 100; Post-emerge Herbicidal Activity CHEAL (phytotoxicity rating) ([5]; 250 g ai/ha): 100; Post-emerge Herbicidal Activity SETVI (phytotoxicity rating) ([6]; 63 g ai/ha): 80; Post-emerge Herbicidal Activity SETVI (phytotoxicity rating) ([6]; 250 g ai/ha): 100; Post-emerge Herbicidal Activity ABUTH (phytotoxicity rating) ([7]; 63 g ai/ha): 100; Post-emerge Herbicidal Activity ABUTH (phytotoxicity rating) ([7]; 250 g ai/ha): 100; Post-emerge Herbicidal Activity IPOHE (phytotoxicity rating) ([8]; 63 g ai/ha): 100; Post-emerge Herbicidal Activity IPOHE (phytotoxicity rating) ([8]; 250 g ai/ha): 100; Post-emerge Herbicidal Activity CASOB (phytotoxicity rating) ([9]; 63 g ai/ha): 80; Post-emerge Herbicidal Activity CASOB (phytotoxicity rating) ([9]; 250 g ai/ha): 100; phytotoxicity rating CORN ([10]; 63 g ai/ha): 65; phytotoxicity rating CORN ([10]; 250 g ai/ha): 95; phytotoxicity rating RICE ([11]; 63 g ai/ha): 70; phytotoxicity rating RICE ([11]; 250 g ai/ha): 100; Post-emerge Herbicidal Activity CORN (crop damage rating) ([12]; 63 g ai/ha): 40; Post-emerge Herbicidal Activity CORN (crop damage rating) ([12]; 250 g ai/ha): 85; Post-emerge Herbicidal Activity RICE (crop damage rating) ([13]; 63 g ai/ha): 35; Post-emerge Herbicidal Activity RICE (crop damage rating) ([13]; 250 g ai/ha): 80; phytotoxicity rating ECHCG ([14]; 63 g ai/ha): 50; phytotoxicity rating ECHCG ([14]; 250 g ai/ha): 100; phytotoxicity rating DIGSA ([15]; 63 g ai/ha): 100; phytotoxicity rating DIGSA ([15]; 250 g ai/ha): 100; phytotoxicity rating CHEAL ([16]; 63 g ai/ha): 100; phytotoxicity rating CHEAL ([16]; 250 g ai/ha): 100; phytotoxicity rating SETVI ([17]; 63 g ai/ha): 100; phytotoxicity rating SETVI ([17]; 250 g ai/ha): 100; phytotoxicity rating ABUTH ([18]; 63 g ai/ha): 100; phytotoxicity rating ABUTH ([18]; 250 g ai/ha): 100; phytotoxicity rating IPOHE ([19]; 63 g ai/ha): 80; phytotoxicity rating IPOHE ([19]; 250 g ai/ha): 80; phytotoxicity rating CASOB ([20]; 63 g ai/ha): 60; phytotoxicity rating CASOB ([20]; 250 g ai/ha): 100

**Q.** What does the source list for COc1c(Cl)cc(F)c(-n2c(=O)cc(C(F)(F)F)n(C)c2=O)c1NN=Cc1ccc2ccccc2c1 [15-22]?
**A.** phytotoxicity rating AMARE ([1]; 63 g ai/ha): 100; phytotoxicity rating AMARE ([1]; 250 g ai/ha): 100; Post-emerge Herbicidal Activity ECHCG (phytotoxicity rating) ([2]; 63 g ai/ha): 40; Post-emerge Herbicidal Activity ECHCG (phytotoxicity rating) ([2]; 250 g ai/ha): 100; Post-emerge Herbicidal Activity AMARE (phytotoxicity rating) [3, 21]: 100; Post-emerge Herbicidal Activity AMARE (phytotoxicity rating) [3, 22]: 100; Post-emerge Herbicidal Activity DIGSA (phytotoxicity rating) ([4]; 63 g ai/ha): 30; Post-emerge Herbicidal Activity DIGSA (phytotoxicity rating) ([4]; 250 g ai/ha): 90; Post-emerge Herbicidal Activity CHEAL (phytotoxicity rating) ([5]; 63 g ai/ha): 100; Post-emerge Herbicidal Activity CHEAL (phytotoxicity rating) ([5]; 250 g ai/ha): 100; Post-emerge Herbicidal Activity SETVI (phytotoxicity rating) ([6]; 63 g ai/ha): 40; Post-emerge Herbicidal Activity SETVI (phytotoxicity rating) ([6]; 250 g ai/ha): 95; Post-emerge Herbicidal Activity ABUTH (phytotoxicity rating) ([7]; 63 g ai/ha): 100; Post-emerge Herbicidal Activity ABUTH (phytotoxicity rating) ([7]; 250 g ai/ha): 100; Post-emerge Herbicidal Activity IPOHE (phytotoxicity rating) ([8]; 63 g ai/ha): 100; Post-emerge Herbicidal Activity IPOHE (phytotoxicity rating) ([8]; 250 g ai/ha): 100; Post-emerge Herbicidal Activity CASOB (phytotoxicity rating) ([9]; 63 g ai/ha): 70; Post-emerge Herbicidal Activity CASOB (phytotoxicity rating) ([9]; 250 g ai/ha): 100; phytotoxicity rating CORN ([10]; 63 g ai/ha): 25; phytotoxicity rating CORN ([10]; 250 g ai/ha): 95; phytotoxicity rating RICE ([11]; 63 g ai/ha): 30; phytotoxicity rating RICE ([11]; 250 g ai/ha): 99; Post-emerge Herbicidal Activity CORN (crop damage rating) ([12]; 63 g ai/ha): 30; Post-emerge Herbicidal Activity CORN (crop damage rating) ([12]; 250 g ai/ha): 90; Post-emerge Herbicidal Activity RICE (crop damage rating) ([13]; 63 g ai/ha): 50; Post-emerge Herbicidal Activity RICE (crop damage rating) ([13]; 250 g ai/ha): 90; phytotoxicity rating ECHCG ([14]; 63 g ai/ha): 60; phytotoxicity rating ECHCG ([14]; 250 g ai/ha): 100; phytotoxicity rating DIGSA ([15]; 63 g ai/ha): 100; phytotoxicity rating DIGSA ([15]; 250 g ai/ha): 100; phytotoxicity rating CHEAL ([16]; 63 g ai/ha): 100; phytotoxicity rating CHEAL ([16]; 250 g ai/ha): 100; phytotoxicity rating SETVI ([17]; 63 g ai/ha): 90; phytotoxicity rating SETVI ([17]; 250 g ai/ha): 100; phytotoxicity rating ABUTH ([18]; 63 g ai/ha): 100; phytotoxicity rating ABUTH ([18]; 250 g ai/ha): 100; phytotoxicity rating IPOHE ([19]; 63 g ai/ha): 50; phytotoxicity rating IPOHE ([19]; 250 g ai/ha): 100; phytotoxicity rating CASOB ([20]; 63 g ai/ha): 100; phytotoxicity rating CASOB ([20]; 250 g ai/ha): 100

Source: patent publication US6355799B1, “Substituted benzene compounds, process for their preparation, and herbicidal and defoliant compositions containing them” (ISK Americas Incorporated, priority 1997, dated 2002)
